According to patent publication EP0004810B1 (priority 1978, dated 1979):

Tests used:
PI[…] = type: cell-based, Pityrosporum ovale
comédons = system: comédons; parameters: species or system souris femelles atrichis «rhinocéros»; details: in vivo

Structure (SMILES) | C.M.I. (PI[…]) | D (grand diamètre) (comédons) | Rapport d/D (comédons) | d (diamètre de l'orifice) (comédons)
O=C(OOC(=O)c1cccs1)c1cccs1 [Peroxyde de thénoyle, peroxyde de thénoyle] | 250 µg/mL | 23,5±1,6 unités arbitraires | 0,90 | 21,1±1,7 unités arbitraires
O=C(OOC(=O)c1ccccc1)c1ccccc1 [Peroxyde de benzoyle, peroxyde de benzoyle, reference compound] | – | 27,0±1,8 unités arbitraires | 0,54 | 14,7±2,1 unités arbitraires
